“Also recorded” adds a separate entry of the source.
How the values were obtained:
[1] = test system: Glioblastoma cell line (GBM39); test: GBM39 cells treated with erlotinib, FISH for MYC amplification; assay type: cell-based; conditions: erlotinib 1 uM, 4 weeks, vs control cells
Description: Glioblastoma cell line (GBM39) was assessed for ecDNA in untreated samples and cells treated with the EGFR inhibitor erlotinib (1 uM). Cells were treated for 4 weeks and then assessed by FISH for amplification of MYC ecDNA. […] Cells treated with the erlotinib developed brightly staining MYC amplification on ecDNA. Amplification of MYC on ecDNA and on HSR was quantified from the FISH images in control and treated cells.

[2] = test system: gastric cancer cell line SNU16; test: SNU16 cells treated with infigratinib over about 80 days; relative copy number by metaphase DAPI/FISH; assay type: cell-based
Description: A gastric cancer cell line SNU16 was assessed for the presence of ecDNA using metaphase DAPI/FISH using probes to detect MYC, FGFR2 and EGFR. […] SNU16 cells were then treated with the FGFR inhibitor infigratinib over the course of about 80 days. ecDNA was assessed by metaphase DAPI/FISH and relative copy number for MYC, FGFR2 and EGFR was tracked at day 0 and 5 additional time points.

[3] = test system: gastric cancer CDX SNU16 mouse model; test: gastric cancer CDX SNU16 mouse model, tumor growth over 50 days and copy number in tumors; assay type: in vivo, mice
Description: To assess the effect of an ecDTx agent on gastric cancer and ecDNA development, a gastric cancer CDX SNU16 mouse model was treated with vehicle only, with infigratinib alone (15 mg/kg PO;QD), the ecDTx CHK1 inhibitor (20 mg/kg SQ;Q2D) or with a combination of infigratinib (15 mg/kg PO;QD) and the ecDTx CHK1 inhibitor (20 mg/kg SQ;Q2D). Tumor growth in the animals was monitored over 50 days. […] The effect of the combination was further assessed by evaluating copy number for MYC and FGFR2 in the tumors from the treated mice. […] FGFR2 amplification was abrogated in the presence of the ecDTx agent alone or when used in combination with infigratinib. The presence of the FGRF2 and MYC amplification on ecDNA was validated by FISH (FIG. 3C).

gastric cancer CDX model = test: gastric cancer CDX model, 7-day multi-dosing experiment; assay type: in vivo, mice
Description: The ecDTx agent was further tested in the gastric cancer CDX model in a 7-day multi-dosing experiment. Mice were treated with vehicle only (PO; QDx 7 days), with infigratinib alone (15 mg/kg PO;QD x 7 days), the ecDTx CHK1 inhibitor (20 mg/kg SC;Q2D x 4 doses) or with a combination of infigratinib and the ecDTx CHK1 inhibitor (same dosing as with individual agents).
Tumor volume at day 6 is shown in the box and whisker graph in FIG. 4B. […] Copy number for MYC and FGFR2 was evaluated in the tumors from the treated mice. […] This increase was abrogated in the presence of the ecDTx agent. MYC and FGFR2 expression was also evaluated in the tumors of the treated mice (FIG. 4D).

[4] = test system: lung cancer cell line (H2170); test: H2170 cells treated with paclitaxel, ABCB1 transporter amplified ecDNA (FISH, qPCR); assay type: cell-based
Description: The lung cancer cell line (H2170) was assessed for the presence of oncogene-amplified ecDNA. […] The cell line was treated with paclitaxel and the presence and level of ecDNA was assessed for ABCB1 transporter amplified ecDNA. […] Gene copy number for the ABCB1 transporter was assessed by qPCR.

[5] = test system: colorectal cancer line COLO320 HSR; test: COLO320 HSR cells treated with paclitaxel, ecDNA by metaphase FISH and PCR gene panel
[6] = tumors from treated mice, 50-day study

C#Cc1cccc(Nc2ncnc3cc(OCCOC)c(OCCOC)cc23)c1 [erlotinib]
MYC amplification on HSR [1]: did not show any significant difference
MYC amplification on ecDNA [1]: dramatic increase; also recorded: significant increase

CCN1CCN(c2ccc(Nc3cc(N(C)C(=O)Nc4c(Cl)c(OC)cc(OC)c4Cl)ncn3)cc2)CC1 [infigratinib]
copy number of FGFR2 ([2]; after about 10 days of treatment): reduced dramatically
copy number of EGFR ([2]; treatment over about 80 days): rapidly increased
copy number of MYC ([2]; treatment over about 80 days): rapidly increased
tumor growth ([3]; compared to vehicle, over 50 days, infigratinib 15 mg/kg PO QD, ecDTx CHK1 inhibitor 20 mg/kg SQ Q2D): decreased tumor growth
trend at the later time points (resistance) ([3]; later time points of 50 days, infigratinib 15 mg/kg PO QD): suggested resistance was beginning to develop
copy number of FGFR2 in the tumors [3, 6]: dramatically higher than the other groups
copy number of MYC in the tumors [3, 6]: relatively similar
FGFR2 expression in the tumors (gastric cancer CDX model): markedly increased
MYC expression in the tumors (gastric cancer CDX model): similar
copy number of FGFR2 in the tumors (gastric cancer CDX model): dramatically higher than the other groups
copy number of MYC in the tumors (gastric cancer CDX model): relatively similar

CC(=O)O[C@H]1C(=O)[C@@]2(C)[C@H]([C@H](OC(=O)c3ccccc3)[C@]3(O)C[C@H](OC(=O)[C@H](O)[C@@H](NC(=O)c4ccccc4)c4ccccc4)C(C)=C1C3(C)C)[C@]1(OC(C)=O)CO[C@@H]1C[C@@H]2O [paclitaxel]
copy number of the ABCB1 transporter amplified ecDNA ([4]; FISH, vs untreated controls): marked increase
gene copy number for the ABCB1 transporter ([4]; qPCR, vs untreated control): dramatically higher; also recorded: significant increase
amplification of various genes ([5]; PCR with a panel of genes, paclitaxel-treated cells): highest amount of amplification was seen with ABCB1
copy number of ecDNA harboring the ABCB1 drug efflux pump ([5]; paclitaxel resistant cells, metaphase FISH): high copy number
